Assays:
Assay in all cases: Competitive isoTOP-ABPP, cell lysates;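 on isoTOP-ABPP reactivity profile ratio, P68036 C86: Heavy/light ratio DMSO over fragment-treated so higher means more cysteine engagement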;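 on isoTOP-ABPP reactivity profile ratio, Q15084 C190: Heavy/light ratio DMSO over fragment-treated so higher means more cysteine engagement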
Type in all cases: binding
MGMT C150 (P16455) = molecular target: T1, MGMT C150 (P16455) (Homo sapiens, UniProt P16455)
T1 sequence (P16455 1-207): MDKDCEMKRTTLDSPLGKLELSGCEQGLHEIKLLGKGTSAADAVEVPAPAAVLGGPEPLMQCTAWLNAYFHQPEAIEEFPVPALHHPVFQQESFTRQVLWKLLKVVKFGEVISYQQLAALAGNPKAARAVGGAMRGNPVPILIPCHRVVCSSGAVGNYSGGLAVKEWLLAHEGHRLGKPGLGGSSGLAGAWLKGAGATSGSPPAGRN

XPO1 C528 (O14980) = XPO1 C528 (O14980) (Homo sapiens, UniProt O14980)
SAMHD1 C522 (Q9Y3Z3) = SAMHD1 C522 (Q9Y3Z3) (Homo sapiens, UniProt Q9Y3Z3); details: for isoTOP-ABPP ratio (reactivity profile), Q9Y3Z3_C522: 500 μm in-vitro ramos
SMARCC2 C145 (Q8TAQ2) = SMARCC2 C145 (Q8TAQ2) (Homo sapiens, UniProt Q8TAQ2); details: for isoTOP-ABPP ratio (reactivity profile), Q8TAQ2_C145: 500 μm in-vitro ramos
UBE2L3 C86 (P68036) = UBE2L3 C86 (P68036) (Homo sapiens, UniProt P68036); details: for isoTOP-ABPP reactivity ratio, P68036_C86 / isoTOP-ABPP reactivity profile ratio, P68036_C86: 500 μm;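 on isoTOP-ABPP reactivity profile ratio, P68036 C86: Heavy/light ratio DMSO over fragment-treated so higher means more cysteine engagement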
PDIA6 C190 (Q15084) = molecular target: T2, PDIA6 C190 (Q15084) (Homo sapiens, UniProt Q15084); details: for isoTOP-ABPP ratio (reactivity profile), Q15084_C190: 500 μm in-vitro ramos;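 on isoTOP-ABPP reactivity profile ratio, Q15084 C190: Heavy/light ratio DMSO over fragment-treated so higher means more cysteine engagement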
T2 sequence (Q15084 20-440): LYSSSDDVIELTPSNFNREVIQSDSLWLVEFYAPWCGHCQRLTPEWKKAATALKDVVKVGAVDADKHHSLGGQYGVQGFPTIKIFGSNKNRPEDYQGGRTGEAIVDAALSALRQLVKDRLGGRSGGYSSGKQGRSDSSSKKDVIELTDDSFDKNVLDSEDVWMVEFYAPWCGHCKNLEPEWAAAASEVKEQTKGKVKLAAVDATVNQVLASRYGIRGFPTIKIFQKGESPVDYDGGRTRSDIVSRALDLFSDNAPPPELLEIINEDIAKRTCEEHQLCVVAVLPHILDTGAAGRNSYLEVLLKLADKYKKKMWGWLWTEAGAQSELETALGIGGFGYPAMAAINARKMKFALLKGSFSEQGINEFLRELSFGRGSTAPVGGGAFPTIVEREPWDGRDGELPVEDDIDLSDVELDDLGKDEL

GNB2L1 C182 (P63244) = GNB2L1 C182 (P63244) (Homo sapiens, UniProt P63244); details: for isoTOP-ABPP ratio (reactivity profile), P63244_C182: 500 μm in-vitro ramos; for isoTOP-ABPP reactivity ratio, P63244_C182 / isoTOP-ABPP reactivity profile ratio, P63244_C182: 500 μm
GSTP1 C48 (P09211) = GSTP1 C48 (P09211) (Homo sapiens, UniProt P09211); details: for isoTOP-ABPP ratio (reactivity profile), P09211_C48: 500 μm in-vitro ramos; for isoTOP-ABPP reactivity ratio, P09211_C48 / isoTOP-ABPP reactivity profile ratio, P09211_C48: 500 μm
DCUN1D1 C115 (Q96GG9) = DCUN1D1 C115 (Q96GG9) (Homo sapiens, UniProt Q96GG9); details: for isoTOP-ABPP ratio (reactivity profile), Q96GG9_C115: 500 μm in-vitro ramos; for isoTOP-ABPP reactivity ratio, Q96GG9_C115: 500 μm
XPO1 C34 (O14980) = XPO1 C34 (O14980) (Homo sapiens, UniProt O14980); details: for isoTOP-ABPP ratio (reactivity profile), O14980_C34: 500 μm in-vitro ramos
STAT3 C259 (P40763) = STAT3 C259 (P40763) (Homo sapiens, UniProt P40763); details: 500 μm, in-vitro_ramos

Compound | isoTOP-ABPP ratio (reactivity profile), Q9Y3Z3_C522 (SAMHD1 C522 (Q9Y3Z3)) | isoTOP-ABPP ratio (reactivity profile), Q8TAQ2_C145 (SMARCC2 C145 (Q8TAQ2)) | isoTOP-ABPP ratio (reactivity profile), Q15084_C190 (PDIA6 C190 (Q15084)) | isoTOP-ABPP ratio (reactivity profile), P63244_C182 (GNB2L1 C182 (P63244)) | isoTOP-ABPP ratio (reactivity profile), P09211_C48 (GSTP1 C48 (P09211)) | isoTOP-ABPP ratio (reactivity profile), Q96GG9_C115 (DCUN1D1 C115 (Q96GG9)) | isoTOP-ABPP ratio (reactivity profile), O14980_C34 (XPO1 C34 (O14980)) | isoTOP-ABPP reactivity ratio, P16455_C150 (MGMT C150 (P16455); 500 μm, in-vitro_ramos) | isoTOP-ABPP reactivity ratio, Q8TAQ2_C145 (SMARCC2 C145 (Q8TAQ2); 500 μm, in-vitro_ramos) | isoTOP-ABPP reactivity ratio, P68036_C86 (UBE2L3 C86 (P68036); in-vitro_ramos) | isoTOP-ABPP reactivity ratio, P63244_C182 (GNB2L1 C182 (P63244); in-vitro_ramos) | isoTOP-ABPP reactivity ratio, P09211_C48 (GSTP1 C48 (P09211); in-vitro_ramos) | isoTOP-ABPP reactivity ratio, Q96GG9_C115 (DCUN1D1 C115 (Q96GG9); in-vitro_ramos) | isoTOP-ABPP reactivity ratio, O14980_C34 (XPO1 C34 (O14980); 500 μm, in-vitro_ramos) | isoTOP-ABPP reactivity ratio, P40763_C259 (STAT3 C259 (P40763)) | isoTOP-ABPP reactivity ratio, Q8TAQ2_C145 (SMARCC2 C145 (Q8TAQ2); 500 μm, in-vitro_ramos_231) | isoTOP-ABPP reactivity ratio, Q15084_C190 (PDIA6 C190 (Q15084); 500 μm, in-vitro_ramos_231) | isoTOP-ABPP reactivity ratio, P63244_C182 (GNB2L1 C182 (P63244); in-vitro_ramos_231) | isoTOP-ABPP reactivity ratio, P09211_C48 (GSTP1 C48 (P09211); in-vitro_ramos_231) | isoTOP-ABPP reactivity ratio, O14980_C34 (XPO1 C34 (O14980); 500 μm, in-vitro_ramos_231) | other results
O=C(/C=C/c1ccccc1)Nc1cc(C(F)(F)F)cc(C(F)(F)F)c1 [compound 26] | 0.9 | 0.9 | 0.9 | 1.0 | 0.9 | 0.9 | 0.9 | – | – | – | – | – | – | – | – | – | – | – | – | – | isoTOP-ABPP ratio (reactivity profile), P16455_C150 (MGMT C150 (P16455); 500 μm in-vitro ramos): 0.9; isoTOP-ABPP ratio (reactivity profile), O14980_C528 (XPO1 C528 (O14980); 500 μm in-vitro ramos): 0.9; isoTOP-ABPP ratio (reactivity profile), P68036_C86 (UBE2L3 C86 (P68036); 500 μm in-vitro ramos): 0.7
CCN(CC)c1ccc(S(N)(=O)=O)cc1NC(=O)CCl [compound 30] | 0.7 | 1.1 | 2.3 | 1.2 | 1.4 | 0.7 | 0.7 | 5.1 | 1.5 | 1.5 | 1.6 | 1.2 | 1.1 | 1.1 | – | – | – | – | – | – | –
O=C(CCl)Nc1ccccc1C1CCCCCC1 [compound 35] | – | – | – | – | – | – | – | 1.3 | – | – | 0.9 | 1.3 | 0.9 | 1.3 | 1.1 | 0.9 | 0.9 | 0.9 | 0.7 | 0.8 | isoTOP-ABPP reactivity ratio, O14980_C528 (XPO1 C528 (O14980); 500 μm, in-vitro_ramos): 0.8
C=CC(=O)Nc1cc(F)c(N2CCN(C(=O)OC(C)(C)C)CC2)c(F)c1 [compound 38] | – | – | – | – | – | – | – | 1.8 | 1.9 | 1.5 | – | – | 1.0 | 1.0 | 1.5 | 1.1 | 1.1 | 1.1 | 1.9 | 1.0 | isoTOP-ABPP reactivity ratio, O14980_C528 (XPO1 C528 (O14980); 500 μm, in-vitro_ramos_231): 1.0; isoTOP-ABPP reactivity ratio, Q96GG9_C115 (DCUN1D1 C115 (Q96GG9); in-vitro_ramos_231): 1.2
COc1cc(NC(=O)CCl)cc(OC)c1 [compound 43] | – | – | – | – | – | – | – | – | – | – | – | – | – | – | – | – | – | – | – | – | isoTOP-ABPP reactivity profile ratio, P16455_C150 (MGMT C150 (P16455); 500 μm, in-vitro_ramos): 20.0; isoTOP-ABPP reactivity profile ratio, O14980_C528 (XPO1 C528 (O14980); 500 μm, in-vitro_ramos_231): 4.6; isoTOP-ABPP reactivity profile ratio, Q9Y3Z3_C522 (SAMHD1 C522 (Q9Y3Z3); 500 μm, in-vitro_ramos_231): 2.2; isoTOP-ABPP reactivity profile ratio, Q8TAQ2_C145 (SMARCC2 C145 (Q8TAQ2); 500 μm, in-vitro_ramos_231): 20.0; isoTOP-ABPP reactivity profile ratio, P68036_C86 (UBE2L3 C86 (P68036); in-vitro_ramos): 1.7; isoTOP-ABPP reactivity profile ratio, P68036_C86 (UBE2L3 C86 (P68036); in-vitro_ramos_231): 1.1; isoTOP-ABPP reactivity profile ratio, Q15084_C190 (PDIA6 C190 (Q15084); 500 μm, in-vitro_ramos_231): 20.0; isoTOP-ABPP reactivity profile ratio, P63244_C182 (GNB2L1 C182 (P63244); in-vitro_ramos): 0.9; isoTOP-ABPP reactivity profile ratio, P63244_C182 (GNB2L1 C182 (P63244); in-vitro_ramos_231): 0.9; isoTOP-ABPP reactivity profile ratio, P09211_C48 (GSTP1 C48 (P09211); in-vitro_ramos): 2.2; isoTOP-ABPP reactivity profile ratio, P09211_C48 (GSTP1 C48 (P09211); in-vitro_ramos_231): 4.1; isoTOP-ABPP reactivity profile ratio, O14980_C34 (XPO1 C34 (O14980); 500 μm, in-vitro_ramos_231): 1.1
